# In patent US20080193938A1, “Materials And Methods Relating To Breast Cancer Classification” (priority 2005, published 2008):
# Experiments:
# TuM1 module = assay: Gene set enrichment analysis of tumor module expression in tamoxifen treated MCF7 cells; format: cell-based; conditions: 10 μM tamoxifen, harvested at 48 hrs; FDR=0.05
# Procedure: MCF-7 breast cancer cells were obtained from American Type Culture Collection center (Manassas, Va.), and cells were cultured in Dulbecco's modified Eagle medium (DMEM) (Gibco, Grand Island, N.Y.) supplemented with 10% fetal bovine serum (FBS), 100 U/mL penicillin, 100 U/mL streptomycin, and 2 mM L-glutamine. Before tamoxifen treatment, cells were washed three times in PBS and maintained in phenol red free DMEM with 5% Dextran charcoal-stripped FBS (HyClone Laboratories, Pittsburgh, Pa.) for 24 hrs. Subsequently cells were treated with 10 μM tamoxifen (Sigma) and harvested at 48 hrs. Control sister cultures were treated with an equivalent volume of the vehicle (0.1% ethanol).
# GSEA was used to ask if expression of the tumor module genes might be affected by tamoxifen treatment. Four control samples and two post-treatment samples (See Materials and Methods) were used for GSEA analysis. Three modules (TuM4, 5 and 6) were filtered out due to insufficient number of genes (<10) expressed in MCF7 cell lines.
# The observation that TuM1 is expressed in a subset of ER+ tumors raises the possibility that expression of this module may depend, at least in some part, on ER activity and signaling. To investigate the relationship between TuM1 expression and ER signaling, we tested the responsiveness of TuM1 to ER activity using an in vitro system. […]
# MCF-7 cells = assay: Tamoxifen induced apoptosis, Annexin-V flow cytometry in control and RLN2 silenced MCF-7 cells; format: cell-based; conditions: 1 μM tamoxifen for 48 hrs, analyzed 72 hrs after withdrawal
# Procedure: FIG. 13B. Flow cytometric analysis of Tamoxifen sensitivity in RLN2 silenced MCF-7 cells: RLN2 silenced and control cells were treated with 1 μm Tamoxifen or equivalent quantity of vehicle for 48 hrs and subsequently, the treatment was withdrawn. After 72 hrs, Annexin-V staining positive cells were scored in Flow cytometry, which is a measure for tamoxifen induced apoptosis.
# MCF-7 cells (ATCC) were maintained in DMEM growth media supplemented with 10% fetal bovine serum (FBS), 100 U/mL penicillin, 100 U/mL streptomycin, and 2 mM L-glutamine. […] RLN2 silenced and control cells were treated with 1 μM Tamoxifen or equivalent quantity of vehicle for 48 hrs and subsequently, the treatment was withdrawn by changing the culture media to DMEM with 5% DCC. After 72 hrs, cells were trypsinized and stained with Annexin-V-Fluorescein and propidium iodide as recommended by the manufacturer (Roche) and the analyzed in Flow cytometer (Beckman-Coulter). The population of annexin-V positive cells was scored as the representation of the percentages of apoptotic cells.
# To functionally investigate the association of the TuM1 signature with a tumor's response to anti-hormonal treatment, the role of a representative TuM1 gene, Relaxin2 (RLN2) was assessed in a ER+ breast cancer cellular model. […]
structure (smiles),measurement,setting,value
CC/C(=C(\c1ccccc1)c1ccc(OCCN(C)C)cc1)c1ccccc1 [tamoxifen],TuM1 expression in tam-treated MCF7 cells compared to controls (GSEA),TuM1 module,significantly downregulated
same,percentage of apoptotic (annexin-V-staining positive) cells,MCF-7 cells; RLN2 silenced (siRNA) MCF-7 cells,about 23%
same,percentage of apoptotic (annexin-V-staining positive) cells,MCF-7 cells; control MCF-7 cells,about 73%
